Reference: patent publication US20170176446A1, “Methods for Determining the Oncogenic Condition of Cell, Uses Thereof, and Methods for Treating Cancer” (INSERM (INSTITUT NATIONAL DE LA SANTE ET DE LA RECHERCHE …, priority 2009, published 2017)

Tests used:
MCF7 cells = assay: OCDO production by MCF7 cells incubated with [14C]CE, thin-layer chromatography; type: cell-based, human; details: concentration in μM in parentheses after each molecule; control = 100
Excerpt: For assays 1 to 5 and in some of the examples given later in this patent application, MCF7 tumor cells, which originate from the American Tissue Culture Collection (ATCC), were used. […] It is desired to study the activity of ChEH in […] cells by silica thin-layer chromatography. The compounds that it is desired to visualize are the CE and CT compounds defined above. In order to visualize the spots corresponding to CE and CT on a chromatography plate, ^14C-labeled CE and CT compounds were synthesized.
In order to be used in assays 1 to 5 which follow, the cells are seeded into 6-well plates at a density of 80 000 cells in a volume of 2 ml. […] After the incubation time desired for the assay, the medium is collected, the cells are washed with cold PBS (phosphate buffer) (2 ml per well) which is pooled with the medium. The cells are then scraped into cold PBS (1 ml for 3 wells); the wells are again rinsed with cold PBS (1 ml for 3 wells). The cell suspension obtained is centrifuged at 1000 rpm for 5 min at 4° C. […] Throughout the rest of this description, the vehicle solvent used is the same as that defined above.
The aqueous and organic radioactivities are counted. The organic phases are brought to dryness under argon. The residue is resuspended in 60 μl of ethanol and then deposited, in a proportion of 20 μl per lane, on to the glass-backed silica plates (Whatman LK-6-DF, 20×20), which are used in the various assays (these plates having been preheated at 100° C. for 1 hour). The migration solvent used is ethyl acetate. The chromatography plates are placed in contact with a “phosphor-screen” plate in a cassette overnight. […] In order to evaluate the more or less dense nature of the spots obtained on the plates, the radioactivity is quantified by densitometry with the “Imagequant”™ computer program.
Generally, in order to establish the percentages of OCDO inhibition from the thin-layer chromatography (TLC) plates obtained as in assay 2, the radioactive metabolites are identified and quantified on the basis of said plates using a europium-sensitive plate of GP Phosphor screen type (GE Healthcare) and a Storm 840 phosphorimagor (GE Healthcare). The proportion of radiolabeled oxysterols is determined on the autoradiogram obtained by densitometry using the Image Quant 5.2 software. The percentage is calculated on the basis of the ratio between the amount of oxysterols quantified divided by the sum of the amounts of oxysterols (CEE+CE+CT+OCDO). Since the CEE (CE ester) originates exclusively from the CE, the percentage CE is calculated on the basis of the ratio (CE+CEE)/(CE+CEE+CT+OCDO).
Assay 2 given above was therefore completed by measuring the amounts of the products present when the MCF7 tumor cells are incubated as indicated in detail in assay 2.
In order to establish that the link that exists between, on the one hand, the ability of various compounds to inhibit OCDO in an MCF7 tumor cell and, on the other hand, their quality as a ChEH inhibitor, is well-founded, the inhibition coefficients Ki for ChEH relating to a certain number of products was calculated and the production of OCDO by MCF7 cells after incubation of the cells with the same products was measured according to the protocol defined in assay 2 of the present patent application.

TS/A cells = assay: Tumor size of TS/A tumors implanted in BALB/c mice, intratumoral treatment; type: in vivo; details: DDA 10 μM, 100 μl intratumorally once a day
Protocol: A cell culture of TS/A cells was first performed. These TS/A cells are mouse mammary adenocarcinomas (see Nanni P et al., Clin. Exp. Metastasis, 1983 October-December; 1(4): 373-80). The cells are cultured, at 37° C. under 5% CO2, in a DMEM medium supplemented with 2 g/liter of sodium carbonate, 1.2 mM of glutamine (pH 7.4 at 23° C.), 5% of fetal bovine serum (Gibco) and 2.5 ml of antibiotics per liter of medium (penicillin/streptomycin).
The TS/A cells are recovered with trypsin, washed twice and suspended in PBS buffer. The TS/A cells (approximately 4×10^6 […] cells/0.1 ml) are then injected subcutaneously into the flank of 6-week-old female BALB/c mice (supplied by Charles River). […] The animals (10 mice per group) are monitored regularly for tumor development. The volume of the tumors is calculated according to the following formula: L×l^2×0.5 (L is the length and l is the width of the tumor). The experiment was reproduced twice. The results are given in FIG. 18 (the arrow indicates the beginning of the treatment).

OCDO = OCDO content of TS/A tumors by GC/MS; type: in vivo, mice; details: DDA 10 μM, 100 μl intratumorally once a day
Protocol: 5 volumes (relative to the mass removed) of buffer (50 mM Tris-HCl, 150 mM KCl, pH=7.4) are added. The tumors are ground and the homogenates are centrifuged for 5 minutes at 2500 rpm at 4° C. […] After centrifugation (to separate the phases), the organic phase is recovered. The organic phase is evaporated to dryness and then the residue is taken up with 0.5 ml of chloroform. The organic extracts are filtered on 0.5 ml silica cartridges. The polar sterols are eluted sequentially:
1) 0.5 ml of a hexane/chloroform mixture (1/1), 2) 0.5 ml of chloroform, 3) 0.5 ml of ethyl acetate and methanol.
The ethyl acetate fractions are evaporated, silylated (50 μl 1/1 acetonitrile/BSTFA) and then analyzed by GC/MS (2 μl) according to the conditions described above.

ChEH [1] = target: T1, ChEH (Homo sapiens, UniProt Q15125); assay: Inhibition of ChEH activity in MCF7 cells (TLC of [14C]CE conversion); type: cell-based; details: 48 hours, MCF7 cells
T1 construct: MCF7 tumor cells, which originate from the American Tissue Culture Collection (ATCC), were used; host or cells: MCF7
Protocol: For this experiment, an aminoalkyl sterol included in French patent 2 838 741 (and also see: de Medina et al., J Med Chem: 2009, vol. 52, No. 23, p. 7765-7777), having the formula: 6-N-[2-(3H-imidazol-4-yl)ethylamino]cholestane-3β,5α-diol (DDA), was chosen. […]
A thin-layer chromatography was carried out, the plate of which has been reproduced in FIG. 23. On this plate, the incubation is carried out, for lane 1, with [^14C]CE; for lane 2, with [^14C]CT; for lane 3, with the vehicle solvent, which is the same as that used for assays 1 to 5; for lane 4, with [14C]CE and 0.1 μM of the aminoalkyl sterol; and for lane 5, with [^14C]CE and a concentration of 1 μM of the aminoalkyl sterol.

ChEH [2] = target: T1, ChEH; assay: ChEH activity on MCF7 cell lysate (homogenate); type: biochemical; details: 150 μg of proteins, read-out: (IC50)homogenate, ChEH inhibition
Protocol: Moreover, a study of this inhibition on homogenate was also carried out. The protocol is as follows: the MCF7 cells are detached with trypsin and taken up with RPMI medium containing 5% FBS. The cell suspension obtained (60 million cells) is centrifuged, washed with cold PBS and resuspended in 1 ml of […] buffer (pH=7.4; 150 mM KCl). The cells are lyzed by means of five freezing/thawing (liquid nitrogen/37° C.) cycles. The solution is centrifuged at 1200 rpm at 4° C. for 10 minutes. The supernatant is recovered and the amount of proteins is determined by the Bradford method. The measurement of the ChEH activity on MCF7 cell lysate is carried out as follows: the enzymatic activity is measured on 150 μg of proteins in a final volume of 150 μl containing […] of ChEH buffer (Tris-HCl, pH 7.4, 150 mM KCl) and 15 μl of MCF7 proteins.

ChEH [3] = target: T2, ChEH (Rattus norvegicus, UniProt Q9JJ46); assay: Determination of the Ki for ChEH on rat liver microsome proteins (Dixon method); type: biochemical; details: 150 μg rat liver microsome proteins, [14C]CEα
T2 construct: 150 μg of rat liver microsome proteins are incubated; from tissue; host or cells: rat liver microsomes
T2 sequence (Q9JJ46 1-230): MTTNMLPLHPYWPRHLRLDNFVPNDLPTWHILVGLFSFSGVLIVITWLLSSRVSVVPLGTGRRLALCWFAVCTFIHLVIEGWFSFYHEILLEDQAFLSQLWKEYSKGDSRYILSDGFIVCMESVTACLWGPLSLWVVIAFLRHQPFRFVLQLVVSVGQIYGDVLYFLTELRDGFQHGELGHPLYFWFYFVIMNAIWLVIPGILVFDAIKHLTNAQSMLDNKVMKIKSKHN

T1 sequence (Q15125 whole entry): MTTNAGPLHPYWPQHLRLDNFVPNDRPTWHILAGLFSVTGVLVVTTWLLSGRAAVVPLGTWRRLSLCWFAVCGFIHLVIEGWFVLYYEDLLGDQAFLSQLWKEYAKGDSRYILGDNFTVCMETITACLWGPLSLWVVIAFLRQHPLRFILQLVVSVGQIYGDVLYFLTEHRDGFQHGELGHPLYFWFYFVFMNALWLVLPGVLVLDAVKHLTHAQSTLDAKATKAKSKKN

inhibition of ChEH (ChEH [1]; 0.1 and 1 μM, dependent on the concentration): causes an inhibition of ChEH
IC50 (ChEH [1]; [14C]CE 0.6 μM): 600 nM
IC50 (ChEH [2]): 11200 nM
Ki (ChEH [3]): 1250 ± 6 nM
Structure (SMILES): CC(C)CCC[C@@H](C)[C@H]1CC[C@H]2[C@@H]3C[C@@H](NCCc4c[nH]cn4)[C@@]4(O)C[C@@H](O)CC[C@]4(C)[C@H]3CC[C@]12C [DDA, 6-N-[2-(3H-imidazol-4-yl)ethylamino]cholestane-3β,5α-diol]
OCDO production by MCF-7 (% control) (MCF7 cells): <1 % control
Tumor size (% control) (TS/A cells; Day 28): 65.4 ± 7 % control
Tumor size (% control) (TS/A cells; Day 37): 28.3 ± 8 % control
OCDO (% control) (OCDO; Day 28): 14.5 ± 3 % control
OCDO (% control) (OCDO; Day 37): 4.5 ± 3 % control
